Test results: patent US7060451B2, “Methods for screening GABA-modulatory compounds for specified pharmacological activities” (Neurogen Corporation, priority 1999, dated 2006)
Marks after values point to notes of the source that are not given here.

Assays:
[1] = molecular target: α5β3γ2 GABAA subtype receptor (Homo sapiens, UniProt P18507+P31644); assay: oocyte electrophysiology, two electrode voltage-clamp, potentiation of GABA current; format: cell-based; settings: Xenopus oocytes, human subunits, GABA EC10; for Emax: read-out: oocyte electrophysiology maximum potentiation (%) α5β3γ2
α5β3γ2 GABAA subtype receptor, sequence (P31644 32-462): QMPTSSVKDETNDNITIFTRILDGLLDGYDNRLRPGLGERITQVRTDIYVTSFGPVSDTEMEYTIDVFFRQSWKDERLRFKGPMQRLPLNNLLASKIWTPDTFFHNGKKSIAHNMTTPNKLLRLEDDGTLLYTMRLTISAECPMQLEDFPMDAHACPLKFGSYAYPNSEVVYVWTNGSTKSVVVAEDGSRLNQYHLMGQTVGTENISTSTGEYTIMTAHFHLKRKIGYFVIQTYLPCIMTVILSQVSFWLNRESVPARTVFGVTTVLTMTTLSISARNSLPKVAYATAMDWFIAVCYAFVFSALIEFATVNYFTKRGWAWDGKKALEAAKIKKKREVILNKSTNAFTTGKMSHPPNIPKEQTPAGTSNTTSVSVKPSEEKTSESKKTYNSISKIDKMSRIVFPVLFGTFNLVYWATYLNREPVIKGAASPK
α5β3γ2 GABAA subtype receptor, sequence (P28472 26-473 partner): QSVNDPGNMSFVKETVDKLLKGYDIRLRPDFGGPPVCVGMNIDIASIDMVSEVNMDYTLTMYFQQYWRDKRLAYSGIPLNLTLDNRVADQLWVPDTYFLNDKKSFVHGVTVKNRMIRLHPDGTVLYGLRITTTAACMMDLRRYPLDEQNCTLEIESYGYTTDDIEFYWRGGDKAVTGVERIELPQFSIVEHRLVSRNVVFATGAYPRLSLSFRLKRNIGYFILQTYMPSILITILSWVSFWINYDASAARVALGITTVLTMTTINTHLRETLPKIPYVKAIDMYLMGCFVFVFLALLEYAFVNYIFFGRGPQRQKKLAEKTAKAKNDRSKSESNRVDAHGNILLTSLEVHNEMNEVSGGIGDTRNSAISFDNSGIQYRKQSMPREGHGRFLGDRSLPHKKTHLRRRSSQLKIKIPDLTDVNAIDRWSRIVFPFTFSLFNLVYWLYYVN
α5β3γ2 GABAA subtype receptor, sequence (P18507 40-475): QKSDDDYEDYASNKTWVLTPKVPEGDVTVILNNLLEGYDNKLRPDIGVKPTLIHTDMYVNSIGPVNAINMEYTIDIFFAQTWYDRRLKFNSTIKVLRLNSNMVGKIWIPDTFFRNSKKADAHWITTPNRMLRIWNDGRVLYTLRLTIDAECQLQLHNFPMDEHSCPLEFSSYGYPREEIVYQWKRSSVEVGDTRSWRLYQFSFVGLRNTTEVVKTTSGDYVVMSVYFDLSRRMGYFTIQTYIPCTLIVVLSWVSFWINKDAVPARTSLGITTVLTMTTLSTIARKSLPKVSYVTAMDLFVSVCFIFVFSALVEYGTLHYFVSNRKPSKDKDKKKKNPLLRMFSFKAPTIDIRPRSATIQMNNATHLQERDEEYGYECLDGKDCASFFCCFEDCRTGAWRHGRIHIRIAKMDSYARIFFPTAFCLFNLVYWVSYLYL
Experimental: (§1) Assays are carried out as described previously in White and Gurley, 1995 and White, et al., 1995. Xenopus laevis oocytes are enzymatically isolated and injected with non-polyadenylated cRNA for human derived α, β and γ GABAA subunits, respectively. In more preferred embodiments cRNA for the α1β2γ2, α2β3γ2, α3β3γ2, and α5β3γ2 subunit combinations are injected. Only one of these subunit combinations is injected per cell. For each subunit combination, sufficient message is injected to result in current amplitudes of >10 nA when 1 μM GABA is applied. Electrophysiological recordings are carried out using the two electrode voltage-clamp technique at a membrane holding potential of −70 mV.
(§2) Compounds are evaluated against a GABA concentration that evokes <10% (EC10) of the maximal evocable GABA current. Each oocyte is exposed to increasing concentrations of compound in order to evaluate a concentration/effect relationship.
(§3) Specificity of a compound for the Ro15-1788 site is determined following completion of the concentration/effect curve. After washing the oocyte sufficiently to remove previously applied compound, the oocyte is exposed to GABA and 1 μM Ro15-1788, followed by exposure to GABA, 1 μM Ro15-1788, and compound. Percent change due to addition of compound is calculated as described above. Any percent change observed in the presence of Ro15-1788 is subtracted from the percent changes in current amplitude observed in the absence of 1 μM Ro15-1788. These net values are used for the calculation of average activity and EC50 values.
(§4) To evaluate average activity and EC50 values, the concentration/effect data are averaged across cells and fit to the logistic equation. Average values are reported as mean ±standard error.

rats [2] = assay: spontaneous locomotor activity; format: in vivo; settings: rat, in vivo, iv, 15 min
Experimental: Spontaneous locomotor activity can be measured to determine sedative effects of compounds. Locomotor activity is measured in eight computerized Digiscan-16 Animal Activity Monitors (Omnitech Electronics, Columbus, Ohio) equipped with 48 infrared photocell emitters and detectors. Each box is constructed of Plexiglas sides and floor. Horizontal activity is detected by a set of horizontal sensors on the front to back walls and a second group of sensors on the side to side walls located 5 cm above the cage floor. Vertical activity is detected by a third set of sensors on the side to side walls located 13.5 cm above the cage floor. The rats are tested in the presence of white noise (62 dB) and red St light (60 watt).
Test compound is administered IV in a 50% PEG vehicle 5 minutes prior to the test session. A range of compound doses is typically used and 6 to 8 rats are tested at each dose. The animal's movement time, vertical activity, and total distance traveled are tracked over a 15 minute test session. A sedative, or hypnotic, effect in the spontaneous locomotor activity model is defined by a decrease in any two of these three measures relative to animals given vehicle alone.

rats [3] = assay: elevated plus maze; format: in vivo; settings: rat, IV, statistically significant response (anxiolytic effect)
Experimental: The elevated plus maze model capitalizes on rats' innate fear of open, elevated places. The test apparatus is an elevated plus maze consisting of two open arms and two closed arms. A rat will naturally chose to spend more time on the closed arms of the maze than on the open arms but that if an efficacious anxiolytic compound is administered to the rat prior to the test the amount it of time the rat spends in the open arms is increased.
Test compound is administered IV in a 50% PEG (polyethylene glycol) vehicle 5 minutes prior to the test session. A range of compound doses is typically used and 8-10 rats are tested at each dose. The rat is placed in the center of the maze facing one of the open arms. The animal's locomotion is tracked over a five minute test session using photocells interfaced to a computer. The computer measures the number of entries into each arm and the time spent on each arm. An anxiolytic effect in the elevated plus maze model is defined by an increase in the percentage of time spent on the open arms in compound versus vehicle treated animals.

rats [4] = assay: Porsolt forced swim test; format: in vivo; settings: rat, administered IV, statistically significant response
From the text: The effects measured in this model have been correlated to antidepressant efficacy for drugs. The paradigm of this model is that an effective antidepressant compound will cause a rat to make greater attempts to escape a water-filled cylinder than a rat given vehicle only.
Animals used in this study were non-naive male Sprague Dawley Rats (SASCO, St. Louis) weighing between 280-350 grams. The test apparatus consists of 6 clear Plexiglas cylinders 40 cm high×19 cm wide. Cylinders are filled to 18 cm with 25° C. water. Each rat is placed in a cylinder for a 15 minute training session. Following either subchronic or acute dosing of either vehicle (0.5% methylcellulose) of compound, animals are brought back 24 hours later for a 5 minute test session. These test session is videotaped for later scoring.
Subchronic dosing consists of administering drug three times in the 24-hour period between training and testing. The drug is administered 24 hrs., 5 hrs., and 1 hr. prior to the test session. Acute dosing consists of administering the drug once, 1 hour prior to the test session. Scoring is done using a time-sampling computer program written in Visual Basic and run in DOS. […] These sampling score are then converted into percentages of the test session.

[5] = molecular target: α1β2γ2 GABAA subtype receptor (Homo sapiens, UniProt P14867+P18507); assay: oocyte electrophysiology, two electrode voltage-clamp, potentiation of GABA current; format: cell-based; settings: Xenopus oocytes, human subunits, GABA EC10; for Emax: read-out: oocyte electrophysiology maximum potentiation (%) α1β2γ2
α1β2γ2 GABAA subtype receptor, sequence (P14867 28-456): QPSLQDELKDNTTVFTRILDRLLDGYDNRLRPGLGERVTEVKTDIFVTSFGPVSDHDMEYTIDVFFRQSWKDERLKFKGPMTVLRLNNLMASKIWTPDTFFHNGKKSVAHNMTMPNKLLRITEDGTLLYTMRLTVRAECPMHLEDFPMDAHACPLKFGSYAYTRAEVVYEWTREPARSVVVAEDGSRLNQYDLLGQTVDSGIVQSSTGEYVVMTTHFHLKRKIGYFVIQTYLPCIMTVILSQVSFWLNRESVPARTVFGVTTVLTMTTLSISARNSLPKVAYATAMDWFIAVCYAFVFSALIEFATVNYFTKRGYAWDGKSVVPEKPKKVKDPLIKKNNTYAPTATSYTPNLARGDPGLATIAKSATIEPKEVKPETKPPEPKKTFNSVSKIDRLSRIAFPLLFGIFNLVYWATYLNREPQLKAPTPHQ
α1β2γ2 GABAA subtype receptor, sequence (P47870 25-512 partner limits assumed): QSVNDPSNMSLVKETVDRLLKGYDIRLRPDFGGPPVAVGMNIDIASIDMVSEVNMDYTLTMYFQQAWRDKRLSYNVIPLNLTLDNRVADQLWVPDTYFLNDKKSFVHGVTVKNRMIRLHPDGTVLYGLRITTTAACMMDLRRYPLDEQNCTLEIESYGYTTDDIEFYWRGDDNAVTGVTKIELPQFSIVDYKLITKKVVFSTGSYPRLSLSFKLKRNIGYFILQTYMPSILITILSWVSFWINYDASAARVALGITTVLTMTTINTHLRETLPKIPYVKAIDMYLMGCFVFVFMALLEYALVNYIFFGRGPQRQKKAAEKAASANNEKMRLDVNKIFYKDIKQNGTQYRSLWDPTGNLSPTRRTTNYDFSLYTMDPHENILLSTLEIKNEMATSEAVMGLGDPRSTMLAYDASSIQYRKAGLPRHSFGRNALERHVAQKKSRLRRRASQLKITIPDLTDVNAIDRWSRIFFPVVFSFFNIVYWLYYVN
α1β2γ2 GABAA subtype receptor, sequence (P18507 40-475): as the sequence (P18507 40-475) above
Experimental: as §1, §2, §3, §4

[6] = molecular target: α3β3γ2 GABAA subtype receptor (Homo sapiens, UniProt P18507+P34903); assay: as above; format: cell-based; settings: Xenopus oocytes, human subunits, GABA EC10
α3β3γ2 GABAA subtype receptor, sequence (P34903 29-492): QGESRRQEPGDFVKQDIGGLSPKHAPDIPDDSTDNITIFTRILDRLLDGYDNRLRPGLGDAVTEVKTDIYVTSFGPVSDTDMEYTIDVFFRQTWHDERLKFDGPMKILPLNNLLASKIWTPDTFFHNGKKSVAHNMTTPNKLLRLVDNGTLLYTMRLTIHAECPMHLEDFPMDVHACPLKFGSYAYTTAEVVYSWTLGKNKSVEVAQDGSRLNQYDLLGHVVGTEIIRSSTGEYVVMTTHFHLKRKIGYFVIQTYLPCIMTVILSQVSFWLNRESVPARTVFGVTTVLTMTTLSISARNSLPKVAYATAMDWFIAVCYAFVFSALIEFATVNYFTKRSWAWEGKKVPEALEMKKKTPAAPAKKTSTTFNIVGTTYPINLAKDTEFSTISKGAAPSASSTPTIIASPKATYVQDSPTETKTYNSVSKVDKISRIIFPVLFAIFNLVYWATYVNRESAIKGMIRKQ
α3β3γ2 GABAA subtype receptor, sequence (P28472 26-473 partner): as the sequence (P28472 26-473 partner) above
α3β3γ2 GABAA subtype receptor, sequence (P18507 40-475): as the sequence (P18507 40-475) above
Experimental: as §1, §2, §3, §4

[7] = molecular target: α2β3γ2 GABAA subtype receptor (Homo sapiens, UniProt P18507+P47869); assay: as above; format: cell-based; settings: Xenopus oocytes, human subunits, GABA EC10
α2β3γ2 GABAA subtype receptor, sequence (P47869 29-451): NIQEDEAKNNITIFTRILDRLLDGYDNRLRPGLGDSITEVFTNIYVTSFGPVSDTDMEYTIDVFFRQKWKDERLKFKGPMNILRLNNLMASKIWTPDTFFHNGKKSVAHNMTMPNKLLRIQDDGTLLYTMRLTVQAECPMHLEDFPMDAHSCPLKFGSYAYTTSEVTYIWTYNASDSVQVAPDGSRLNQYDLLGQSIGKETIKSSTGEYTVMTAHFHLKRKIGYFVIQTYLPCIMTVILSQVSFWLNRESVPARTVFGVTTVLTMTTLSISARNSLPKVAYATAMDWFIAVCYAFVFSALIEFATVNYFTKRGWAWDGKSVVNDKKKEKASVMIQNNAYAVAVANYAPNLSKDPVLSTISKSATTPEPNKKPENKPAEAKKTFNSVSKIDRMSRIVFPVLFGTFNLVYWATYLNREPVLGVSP
α2β3γ2 GABAA subtype receptor, sequence (P28472 26-473 partner): as the sequence (P28472 26-473 partner) above
α2β3γ2 GABAA subtype receptor, sequence (P18507 40-475): as the sequence (P18507 40-475) above
Experimental: as §1, §2, §3, §4

[8] = system: bicuculline-induced seizures in rats; assay: bicuculline seizure threshold test; format: in vivo; settings: rat, compound infused 5 minutes before bicuculline
From the text: This test provides a measure of whether the test compound is proconvulsant by measuring whether the test compound produces any change in the dose of the seizure inducing drug, bicuculline, needed to elicit seizures in rats. Test compounds must show <25% decrease in seizure threshold or p>0.05 significance to be considered as drug candidates.
Adult male Sprague-Dawley rats (175-300 g) are weighed and placed in a rat restrainer. A Teflon® indwelling catheter is placed in one of the lateral tail veins and held in place with surgical tape. The catheter and a 3.0 cc syringe are connected by a length of PE-100 tubing fitted with Hamilton male and female adapter. Patency of catheter placement is tested by backflow of venous blood and ready infusion of less than 2 ml of saline solution. Animals are placed in a clear acrylic cage for behavioral observation.
The test compound is prepared in either 25% or 50% polyethylene glycol 400 (PEG) vehicle. A bicuculline (BIC) stock solution of 1.0 mg/ml BIC in 25% PEG/75% 1N HCl is also prepared. […]
Test compound is infused 5 minutes prior to the start of bicuculline infusion. […] The time elapsed from the start of bicuculline infusion to first myoclonic jerk (first head/neck twitch), the initiation of full myoclonus (writhing), and final forelimb extension is all recorded using a digital stopwatch. […]

rats [9] = assay: step-down passive avoidance; format: in vivo; settings: rat, IV, cognitive enhancement
From the text: In step-down passive avoidance a rat is placed on a platform located in the center of an electrified grid floor that is contained within a large (45 cm×45 cm×50 cm) white translucent Plexiglas® enclosure. The natural inclination of the rat is to step off the platform and investigate its surroundings. […] Each time the animal steps off the platform it receives a mild foot shock of 2 mAmps×6 sec. Following each shock the animal is removed from the box, placed in its cage for a one minute inter-trial interval, and then returned to the platform. The latency to step down on each trial, the number of trials taken to reach criterion during training and the retention latency are collected.
Testing is conducted approximately 24 hrs. after training. Drug-free animals are placed on the platform in the box in which they will have been trained and the latency to step down onto the grid floor is recorded for one trial as a measure of memory retention.

rats [10] = assay: spatial water maze; format: in vivo; settings: rat
[11] = molecular target: GABAA receptors (benzodiazepine site, Ro15-1788 binding sites), rat cortex; assay: Ro15-1788 competition binding assay, rat cortex membranes; settings: displacement of 3H Ro15-1788, read-out: Ro15-1788 binding, K1
Experimental: Rat cortex membranes are prepared by homogenizing one or two previously frozen rat cortexes in 30 ml of 25 mM Tris Buffer, pH 7.4. The homogenate is centrifuged for 10 minutes at 500× g. The supernatant is then transferred to a clean centrifuge tube and the pellet discarded. The supernatant is spun for 20 minutes at 48,000× g. The supernatant from this spin is discarded and the pellet is resuspended in 30 ml of 25 mM Tris Buffer, pH 7.4 and centrifuged for an additional 10 minutes at 48,000× g. The supernatant from the final spin is discarded and the membrane pellet is resuspended in 100 mL Tris buffer per gram of cortex used.
The cortex membrane preparation is used to perform either percent inhibition or competition binding assays. In order to determine percent inhibition 300 μl of resuspended membranes are mixed with 200 μl ^3H labeled Ro15-1788 (final concentration 2.5 nM) and incubated for 1 hour on ice in the presence of 2 μl test compound in DMSO (final concentration 4 μM). Membranes are harvested onto untreated filtermats. The filtermats are dried and the ^3H Ro15-1788 signal is counted in a scintillation counter. Nonspecific binding is determined by displacement of ^3H Ro15-1788 with 10 μM Diazepam (RBI) or any other compound known to bind tightly at the benzodiazepine site.
K1 values are calculated according to the Cheng-Prussof equation.

| SMILES | oocyte electrophysiology maximum potentiation (%) α5β3γ2 [1] [%] | Emax [1] [%] | spontaneous locomotor activity, minimal efficacious dose (rats [2]) [mg/kg] | elevated plus maze, minimal efficacious dose (rats [3]) [mg/kg] | Porsolt swim test, minimal efficacious dose (rats [4]) [mg/kg] | oocyte electrophysiology maximum potentiation (%) α1β2γ2 [5] [%] | oocyte electrophysiology maximum potentiation (%) α3β3γ2 [6] [%] | oocyte electrophysiology maximum potentiation (%) α2β3γ2 [7] [%] | bicuculline seizure threshold, mean percent decrease in seizure threshold over the dose range studied [8] [%] | cognitive model (step-down passive avoidance), minimal efficacious dose (rats [9]) [mg/kg] | Emax [5] [%] | cognitive model (spatial water maze), minimal efficacious dose (rats [10]; PO) | Ki [11] [µM] | cognitive model (spatial water maze), minimal efficacious dose (rats [10]; IV) | EC50 [1] [nM] |
| --- | --- | --- | --- | --- | --- | --- | --- | --- | --- | --- | --- | --- | --- | --- | --- |
| CCOc1ccc(NC(=O)c2c[nH]c3c2C(=O)CCC3)cc1 [compound 3] | 38 | -11 | 4 | 0.125 | 20 |  |  |  |  |  |  |  |  |  |  |
| O=C1C2C=Nc3ccccc3C2=NN1c1ccccc1 (centres unmarked) [CGS 8216, reference compound] | −39 |  |  |  |  | −26 | −8 | −10 | 50 | 0.06 |  |  |  |  |  |
| COc1ccc(F)c(-c2ncc3[nH]c4c(c3n2)CCCC4)c1 [compound 11] |  | -22 |  |  |  |  | 36 | 21 |  |  | -11 | PO = 10.0^†† mg/kg | 0.033 |  |  |
| O=C(Nc1ccccc1)c1c[nH]c2c1C(=O)CCCC2 [compound 13] |  | -20 |  |  |  |  | 14 | 9 |  |  | -17 |  | 0.0063 | 0.125^†† mg/kg |  |
| CCOc1ccc(-n2c(=O)c3c[nH]c4ccccc4n-3c2=O)cc1 [compound 1] | 15 | -11 |  | 0.03 | 20 | 12 |  |  |  |  |  |  |  |  | 88 |
